Assay type in all cases: cell-based
One experiment relates to S. aureus 209P JC-1. Put plainly: MIC, agar plate dilution method. The note with it: S.aureu209P JC-1. The procedure:
(§1) 22 strains in total, that is, 1 strain of S. aureus 209P JC-1, 20 strains of 1G-stored, clinically separated Staphylococcus (10 strains each of MSSA and MRSA), and 1 strain of E. coli NIHJ JC-2 as the standard strain.
(§2) MW:168, methicilin (DMPPC, staphcililn for injection, Lot. No. FSB […], Banyu Pharmaceutical Co., Ltd.), vancomycin (VCM, Lot. No. 41H0457, 10750, SIGMA).
(§3) Mueller-Hinton agar (MIA, Difco) was used for measurement of antimicrobial properties, and Mueller Hinton broth (MHB, Difco) was used for pre-cultivation.
(§4) The minimum inhibitory concentration (MIC) of each chemical against the used strain was determined according to an agar plate dilution method in accordance with the standard methods of Japanese Society of Chemotherapy. The strain was sprayed onto MHA and cultured at 37° C. overnight, and the resultant colonies were cultured in MHB at 37° C. overnight, and its microbial liquid was diluted 100-fold (1000-fold dilution for E. coli) and used as inoculation liquid.

A further experiment relates to E. coli NIHJ JC-2. Nature of the experiment: MIC, agar plate dilution method. The settings on record: E.coliNIHJ JC-2. How it is done: as §1, §2, §3, §4
Experiment [1] concerns clinically separated Staphylococcus (MSSA and MRSA). Put plainly: MIC, agar plate dilution method. How it is done: as §1, §2, §3, §4
The subject of another experiment is Erwinia sp. Nature of the experiment: paper disk bioassay of the purified product against bacteria. The note with it: 1000, 500 and 250 ppm; 37° C., 18 hours. How it is done: (§5) An agar medium containing a test bacterium was placed in a Petri dish and fixed therein. A paper disk containing the sample was placed thereon and incubated at 37° C. for 18 hours, and formation of a circle of inhibited growth was confirmed.
(§6) The following 4 strains were used: Staphylococcus aureus 209P, Pseudomonas syringal, Xanthomonoas Campestris pv. citri, and Erwinia sp.
(§7) For pre-culture, a bouillon medium (DIFCO) was used, and after overnight cultivation, the cultivation medium was diluted at ×10^2 and mixed with 0.5% upper-layer medium. As the medium for measuring the bacterium, Mycin agar (Mikumi Kagaku) was used.
(§8) Upper layer−1.5% Mycin agar (Mikuni Kagaku)+0.5% Mycin agar mixed with the overnight cultivation (diluted at ×10^2) in 2% bouillon medium (DIFCO)
(§9) Lower layer−2.0% Mycin agar (Mikuni Kagaku)
(§10) A paper disk was impregnated with the isolated and purified product prepared at 1000 ppm, 500 ppm and 250 ppm respectively was air-dried, placed on the Petri dish and incubated at 37° C. for 18 hours, and whether a circle of inhibited growth was formed or not was observed.

In a further experiment the test system is Pseudomonas syringal. The description is as above. The settings on record: 1000, 500 and 250 ppm; 37° C., 18 hours. The procedure:
as §5, §6, §7, §8, §9, §10

Experiment [2] relates to Xanthomonoas Campestris pv. citri. Described as above. The settings on record: 1000, 500 and 250 ppm; 37° C., 18 hours. The procedure:
as §5, §6, §7, §8, §9, §10

In experiment [3] the test system is Staphylococcus aureus 209P. The description is as above. The note with it: 1000, 500 and 250 ppm; 37° C., 18 hours. How it is done:
as §5, §6, §7, §8, §9, §10

Molecules are shown by their SMILES.

For `COc1cccc(OC)c1C(=O)N[C@@H]1C(=O)N2[C@@H]1SC(C)(C)[C@@H]2C(=O)O` [DMPP, methicilin], the MIC in the experiment on S. aureus 209P JC-1 was 1.56 micro gram/ml; in the experiment on E. coli NIHJ JC-2 it was 3.13 micro gram/ml; in experiment [1] (MRSA TH948) it was 1.56 micro gram/ml; in experiment [1] (MRSA TH949), 3.13 micro gram/ml; in experiment [1] (MRSA TH950) it was 3.13 micro gram/ml; in experiment [1] (MRSA TH951) it was 3.13 micro gram/ml. Further, the MIC in experiment [1] (MRSA TH952) was 1.56 micro gram/ml; in experiment [1] (MRSA TH953), 3.13 micro gram/ml; in experiment [1] (MRSA TH954), 3.13 micro gram/ml; in experiment [1] (MRSA TH955) it was 1.56 micro gram/ml; in experiment [1] (MRSA TH956), 3.13 micro gram/ml; in experiment [1] (MRSA TH957), 1.56 micro gram/ml. Moreover, the MIC is more than 12.5 micro gram/ml in experiment [1] (MRSA TH972); more than 12.5 micro gram/ml in experiment [1] (MRSA TH973); more than 12.5 micro gram/ml in experiment [1] (MRSA TH974); more than 12.5 micro gram/ml in experiment [1] (MRSA TH975); more than 12.5 micro gram/ml in experiment [1] (MRSA TH976); 12.5 micro gram/ml in experiment [1] (MRSA TH1350). Further, the MIC is 6.25 micro gram/ml in experiment [1] (MRSA TH1351), more than 12.5 micro gram/ml in experiment [1] (MRSA TH1352), more than 12.5 micro gram/ml in experiment [1] (MRSA TH1353) and more than 12.5 micro gram/ml in experiment [1] (MRSA TH1354).

`O=C(O)/C=C/C1=CC(=O)CC1O` (centres unmarked) [MW168, 3(3-hydroxy-cyclopropene 5-one-2-yl)2-propenoic acid]: the “circle of inhibited growth / activity against the bacteria” value (in the experiment on Erwinia sp.; in the experiment with Pseudomonas syringal; in experiment [2]; in experiment [3]) was “no or less activity” throughout. Besides, the MIC (with S. aureus 209P JC-1; with E. coli NIHJ JC-2; in experiment [1] (MRSA TH948); in experiment [1] (MRSA TH949); in experiment [1] (MRSA TH950); in experiment [1] (MRSA TH951)) was more than 50 micro gram/ml in each case. The MIC in experiment [1] (MRSA TH952), in experiment [1] (MRSA TH953), in experiment [1] (MRSA TH954), in experiment [1] (MRSA TH955), in experiment [1] (MRSA TH956) and in experiment [1] (MRSA TH957) was more than 50 micro gram/ml each time. For the same compound, the MIC in experiment [1] (MRSA TH972), in experiment [1] (MRSA TH973), in experiment [1] (MRSA TH974), in experiment [1] (MRSA TH975), in experiment [1] (MRSA TH976) and in experiment [1] (MRSA TH1350) was more than 50 micro gram/ml throughout. Moreover, the MIC in experiment [1] (MRSA TH1351), in experiment [1] (MRSA TH1352), in experiment [1] (MRSA TH1353) and in experiment [1] (MRSA TH1354) was more than 50 micro gram/ml each time. Besides, in experiment [1] (concentrations used 50˜0.10 micro gram/ml), the “antimicrobial properties against Staphylococcus” value is “no or less activity”.

For `CN[C@H](CC(C)C)C(=O)N[C@H]1C(=O)N[C@@H](CC(N)=O)C(=O)N[C@H]2C(=O)N[C@H]3C(=O)N[C@H](C(=O)N[C@H](C(=O)O)c4cc(O)cc(O)c4-c4cc3ccc4O)[C@H](O)c3ccc(c(Cl)c3)Oc3cc2cc(c3O[C@@H]2O[C@H](CO)[C@@H](O)[C@H](O)[C@H]2O[C@H]2C[C@](C)(N)[C@H](O)[C@H](C)O2)Oc2ccc(cc2Cl)[C@H]1O` [VCM, vancomycin], the MIC is on record as 0.78 micro gram/ml in the experiment with S. aureus 209P JC-1; more than 6.25 micro gram/ml in the experiment on E. coli NIHJ JC-2; 0.78 micro gram/ml in experiment [1] (MRSA TH948); 0.78 micro gram/ml in experiment [1] (MRSA TH949); 0.78 micro gram/ml in experiment [1] (MRSA TH950); 0.78 micro gram/ml in experiment [1] (MRSA TH951). Also, the MIC in experiment [1] (MRSA TH952), in experiment [1] (MRSA TH953), in experiment [1] (MRSA TH954), in experiment [1] (MRSA TH955), in experiment [1] (MRSA TH956) and in experiment [1] (MRSA TH957) was 0.78 micro gram/ml in each case. The MIC in experiment [1] (MRSA TH972), in experiment [1] (MRSA TH973), in experiment [1] (MRSA TH974), in experiment [1] (MRSA TH975), in experiment [1] (MRSA TH976) and in experiment [1] (MRSA TH1350) was 0.78 micro gram/ml each time. Also, the MIC in experiment [1] (MRSA TH1351), in experiment [1] (MRSA TH1352), in experiment [1] (MRSA TH1353) and in experiment [1] (MRSA TH1354) was 0.78 micro gram/ml each time.
